Results reported in ChEMBL document CHEMBL4725370, “Discovery of Proteolysis-Targeting Chimera Molecules that Selectively Degrade the IRAK3 Pseudokinase” (J Med Chem, 2020).
Calls of active or inactive are those of the source. No cut-off for these calls is given here.

Legend:
[1] = target: Interleukin-1 receptor-associated kinase 1 (Homo sapiens, UniProt P51617); assay: Displacement of polymer supported probe 25 binding to IRAK1 in human THP-1 cell lysates preincubated for 45 mins under shaking condition followed by probe addition and measured after 30 mins by mass spectrometry based chemoproteomic analysis; assay type: subcellular; conditions: read-out: Kd(app)
[2] = target: T1, Protein cereblon/Interleukin-1 receptor-associated kinase 3 (Homo sapiens, UniProt Q9Y616+Q96SW2); assay: Protac activity at CRBN/IRAK3 in LPS-induced human THP1 cells assessed as induction of IRAK3 degradation after 16 hrs by Western blot analysis; assay type: cell-based; conditions: thp-1
Target sequence in this assay (Q96SW2 whole entry, one chain of several): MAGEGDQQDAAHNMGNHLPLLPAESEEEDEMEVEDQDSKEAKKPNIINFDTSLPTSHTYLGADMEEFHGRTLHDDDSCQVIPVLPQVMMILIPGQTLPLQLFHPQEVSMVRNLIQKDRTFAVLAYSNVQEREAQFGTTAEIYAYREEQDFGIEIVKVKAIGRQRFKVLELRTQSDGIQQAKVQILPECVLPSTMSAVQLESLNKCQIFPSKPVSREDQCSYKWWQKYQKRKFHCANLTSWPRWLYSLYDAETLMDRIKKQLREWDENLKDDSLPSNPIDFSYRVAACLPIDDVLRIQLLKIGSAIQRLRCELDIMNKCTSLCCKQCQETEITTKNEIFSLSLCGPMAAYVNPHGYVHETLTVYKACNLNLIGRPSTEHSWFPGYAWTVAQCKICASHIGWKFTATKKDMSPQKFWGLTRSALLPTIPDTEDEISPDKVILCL

[3] = target: T1, Protein cereblon/Interleukin-1 receptor-associated kinase 3; assay: Protac activity at CRBN/IRAK3 in human THP1 cells assessed as induction of IRAK3 degradation at 0.1 uM measured after 2 to 72 hrs by Western blot analysis; assay type: cell-based; conditions: THP-1, time hrs 2-72
Target sequence in this assay (Q96SW2 whole entry, looked up, one chain of several): as the sequence (Q96SW2 whole entry, one chain of several) above

[4] = target: Protein cereblon/Interleukin-1 receptor-associated kinase 1 (Homo sapiens) (UniProt P51617+Q96SW2); assay: Protac activity at CRBN/IRAK1 in LPS-induced human THP1 cells assessed as induction of IRAK1 degradation at 0.1 uM measured after 6 hrs by HPLC-MS based global proteomic analysis; assay type: cell-based; conditions: THP-1
THP-1 [5] = assay: Selectivity ratio of Kd(app) for displacement of polymer supported probe 25 binding to GSG2 in human THP-1 cell lysates to Kd(app) for displacement of polymer supported probe 25 binding to IRAK3 in human THP-1 cell lysates
[6] = target: T2, Interleukin-1 receptor-associated kinase 3 (Homo sapiens, UniProt Q9Y616); assay: Inhibition of kinase tracer 236 binding to recombinant human full-length GST-tagged IRAK3 expressed in insect cells by Lanthascreen Eu kinase binding assay
T2 sequence (Q9Y616 whole entry): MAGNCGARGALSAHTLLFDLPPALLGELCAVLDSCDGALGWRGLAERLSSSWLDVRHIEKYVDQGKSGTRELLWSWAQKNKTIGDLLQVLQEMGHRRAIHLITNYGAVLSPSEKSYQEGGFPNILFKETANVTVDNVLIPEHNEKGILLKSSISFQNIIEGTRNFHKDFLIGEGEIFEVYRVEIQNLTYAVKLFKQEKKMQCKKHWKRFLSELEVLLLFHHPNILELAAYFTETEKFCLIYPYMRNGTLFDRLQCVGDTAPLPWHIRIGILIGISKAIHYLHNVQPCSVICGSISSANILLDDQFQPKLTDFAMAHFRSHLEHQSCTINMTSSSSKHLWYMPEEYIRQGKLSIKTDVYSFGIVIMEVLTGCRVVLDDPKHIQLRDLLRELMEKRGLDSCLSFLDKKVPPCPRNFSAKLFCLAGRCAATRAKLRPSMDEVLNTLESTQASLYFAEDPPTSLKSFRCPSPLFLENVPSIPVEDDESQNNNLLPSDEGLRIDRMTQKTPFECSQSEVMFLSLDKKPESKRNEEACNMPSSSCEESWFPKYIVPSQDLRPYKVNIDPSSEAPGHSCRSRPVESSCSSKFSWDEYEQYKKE

THP-1 [7] = assay: Selectivity ratio of Kd(app) for displacement of polymer supported probe 25 binding to CDK11 in human THP-1 cell lysates to Kd(app) for displacement of polymer supported probe 25 binding to IRAK3 in human THP-1 cell lysates
Protein cereblon = Protein cereblon (Homo sapiens, UniProt Q96SW2); assay: Inhibition of CRBN (unknown origin)
[8] = target: T1, Protein cereblon/Interleukin-1 receptor-associated kinase 3; assay: Protac activity at CRBN/IRAK3 in human THP1 cells assessed as induction of IRAK3 degradation at 0.1 uM preincubated for 16 hrs followed by compound washout and measured after 24 hrs by Western blot analysis; assay type: cell-based; conditions: THP-1
Target sequence in this assay (Q96SW2 whole entry, looked up, one chain of several): as the sequence (Q96SW2 whole entry, one chain of several) above

THP-1 [9] = assay: Selectivity ratio of Kd(app) for displacement of polymer supported probe 25 binding to CDK8 in human THP-1 cell lysates to Kd(app) for displacement of polymer supported probe 25 binding to IRAK3 in human THP-1 cell lysates
[10] = target: Protein cereblon/Delta(24)-sterol reductase (Homo sapiens) (UniProt Q15392+Q96SW2); assay: Protac activity at CRBN/DHCR24 in LPS-induced human THP1 cells assessed as induction of DHCR24 degradation at 0.1 uM measured after 6 hrs by HPLC-MS based global proteomic analysis relative to control; assay type: cell-based; conditions: THP-1
[11] = target: NT-3 growth factor receptor (Homo sapiens, UniProt Q16288); assay: Inhibition of NTRK3 (unknown origin) at 0.1 uM relative to control
[12] = target: T1, Protein cereblon/Interleukin-1 receptor-associated kinase 3; assay: Protac activity at CRBN/IRAK3 in human THP1 cells assessed as induction of IRAK3 degradation at 0.1 uM measured after 6 hrs in presence of 10 uM thalidomide by Western blot analysis; assay type: cell-based; conditions: THP-1
Target sequence in this assay (Q96SW2 whole entry, looked up, one chain of several): as the sequence (Q96SW2 whole entry, one chain of several) above

[13] = target: Cyclin-C/Cyclin-dependent kinase 19 (Homo sapiens) (UniProt Q9BWU1+P24863); assay: Inhibition of CDK11/cyclin C (unknown origin) at 0.1 uM relative to control; assay type: protein-complex assay

Protein cereblon, sequence (Q96SW2 whole entry): as the sequence (Q96SW2 whole entry, one chain of several) above
Interleukin-1 receptor-associated kinase 1, sequence (P51617 whole entry): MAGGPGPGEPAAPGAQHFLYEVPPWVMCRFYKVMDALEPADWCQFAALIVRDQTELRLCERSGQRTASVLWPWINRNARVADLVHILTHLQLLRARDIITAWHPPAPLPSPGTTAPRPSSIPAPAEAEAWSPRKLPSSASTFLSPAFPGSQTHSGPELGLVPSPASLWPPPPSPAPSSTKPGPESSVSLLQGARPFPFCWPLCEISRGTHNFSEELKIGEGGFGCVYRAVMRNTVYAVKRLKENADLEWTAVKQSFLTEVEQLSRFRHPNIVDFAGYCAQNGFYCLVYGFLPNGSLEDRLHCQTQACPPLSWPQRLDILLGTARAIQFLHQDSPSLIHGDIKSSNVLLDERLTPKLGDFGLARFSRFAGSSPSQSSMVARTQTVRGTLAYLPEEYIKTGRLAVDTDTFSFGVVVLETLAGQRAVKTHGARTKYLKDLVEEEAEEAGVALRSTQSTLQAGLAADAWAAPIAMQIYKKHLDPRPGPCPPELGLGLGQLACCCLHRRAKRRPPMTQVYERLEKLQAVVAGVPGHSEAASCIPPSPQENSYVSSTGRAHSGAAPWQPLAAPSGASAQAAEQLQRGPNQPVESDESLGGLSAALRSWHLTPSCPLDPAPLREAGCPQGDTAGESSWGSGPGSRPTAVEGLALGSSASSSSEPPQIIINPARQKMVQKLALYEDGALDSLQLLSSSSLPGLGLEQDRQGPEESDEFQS
Protein cereblon/Interleukin-1 receptor-associated kinase 1 (Homo sapiens), sequence (P51617 whole entry, looked up): as the sequence (P51617 whole entry) above
Protein cereblon/Interleukin-1 receptor-associated kinase 1 (Homo sapiens), sequence (Q96SW2 whole entry, looked up): as the sequence (Q96SW2 whole entry, one chain of several) above
Protein cereblon/Delta(24)-sterol reductase (Homo sapiens), sequence (Q15392 whole entry, looked up): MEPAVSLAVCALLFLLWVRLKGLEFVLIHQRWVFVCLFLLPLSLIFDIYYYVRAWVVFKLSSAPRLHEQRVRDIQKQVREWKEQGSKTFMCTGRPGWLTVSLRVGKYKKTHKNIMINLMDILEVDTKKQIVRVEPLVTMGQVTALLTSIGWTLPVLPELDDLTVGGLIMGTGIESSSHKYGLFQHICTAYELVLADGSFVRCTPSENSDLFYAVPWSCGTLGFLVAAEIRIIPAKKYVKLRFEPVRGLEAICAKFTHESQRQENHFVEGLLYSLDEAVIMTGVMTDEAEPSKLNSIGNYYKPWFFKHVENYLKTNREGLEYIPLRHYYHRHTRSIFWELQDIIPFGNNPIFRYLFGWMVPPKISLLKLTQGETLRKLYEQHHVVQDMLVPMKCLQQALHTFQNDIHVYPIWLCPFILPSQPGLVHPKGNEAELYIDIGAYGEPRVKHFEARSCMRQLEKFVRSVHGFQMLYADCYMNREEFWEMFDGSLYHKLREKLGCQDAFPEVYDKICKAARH
Protein cereblon/Delta(24)-sterol reductase (Homo sapiens), sequence (Q96SW2 whole entry, looked up): as the sequence (Q96SW2 whole entry, one chain of several) above
NT-3 growth factor receptor, sequence (Q16288 32-839 limits assumed): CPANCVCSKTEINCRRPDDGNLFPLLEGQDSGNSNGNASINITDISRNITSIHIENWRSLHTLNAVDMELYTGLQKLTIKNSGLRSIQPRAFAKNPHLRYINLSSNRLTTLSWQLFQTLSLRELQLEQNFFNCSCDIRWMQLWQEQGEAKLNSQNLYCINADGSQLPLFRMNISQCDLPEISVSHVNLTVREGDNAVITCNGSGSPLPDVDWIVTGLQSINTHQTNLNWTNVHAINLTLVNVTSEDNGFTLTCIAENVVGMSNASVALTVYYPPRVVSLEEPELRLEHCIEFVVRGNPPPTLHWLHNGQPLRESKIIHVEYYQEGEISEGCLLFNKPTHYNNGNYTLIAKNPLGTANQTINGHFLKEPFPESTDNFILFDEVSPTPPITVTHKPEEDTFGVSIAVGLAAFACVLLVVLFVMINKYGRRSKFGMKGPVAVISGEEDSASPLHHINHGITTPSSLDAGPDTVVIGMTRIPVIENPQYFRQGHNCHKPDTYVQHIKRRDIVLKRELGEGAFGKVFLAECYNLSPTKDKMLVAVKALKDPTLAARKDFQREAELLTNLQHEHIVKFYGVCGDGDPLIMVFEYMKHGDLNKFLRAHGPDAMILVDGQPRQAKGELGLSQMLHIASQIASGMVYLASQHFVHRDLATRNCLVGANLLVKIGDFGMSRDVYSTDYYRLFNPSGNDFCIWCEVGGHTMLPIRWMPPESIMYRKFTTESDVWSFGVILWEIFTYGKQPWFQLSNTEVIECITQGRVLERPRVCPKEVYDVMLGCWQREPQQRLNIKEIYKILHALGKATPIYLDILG

- Kd [1]: 2800 nM
- DC50 [2]: 2 nM
- Activity [3]: Active
- Activity [4]: inactive
- IC50 [6]: 5 nM
- IC50 (Protein cereblon): 460 nM
- Activity [8]: inactive
- fold change (FC) [10]: -1.5
- inhibition [11]: 60%
- Activity [12]: inactive
- inhibition [13]: 82%
SMILES: CC(C)c1ccn2ncnc(N[C@H]3CC[C@@H](N4CCN(C(=O)CCC(=O)N5CCC(CCN6CCN(c7ccc8c(c7)C(=O)N(C7CCC(=O)NC7=O)C8=O)CC6)CC5)CC4)CC3)c12 (some centres undefined)
- Selectivity ratio (THP-1 [5]): 23
- Selectivity ratio (THP-1 [7]): > 880
- Selectivity ratio (THP-1 [9]): 41
